We go through 16 compounds from US12139492B2 (Endotarget Inc., priority 2021, dated 2024).

In one assay the test system is Mino cells. The assay can be described thus: Antiproliferative effect, MTS cell viability assay, Mino cells. It is filed as cell-based. The following applies: Homo sapiens, MINO, Mino mantle cell lymphoma cells; read-out: IC50 (anti-proliferation) Mino cells. In short, it runs like this: (§1)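 Tested at six concentrations (0 to 10 μM in tenfold steps), 72 h; viability by MTS, A490.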

The next assay has as its system JeKo-1 cells. Description: Antiproliferative effect, MTS cell viability assay, JeKo-1 cells. It is filed as cell-based. The conditions noted are these: Homo sapiens; JeKo-1 mantle cell lymphoma cells; read-out: IC50 (anti-proliferation) JeKO-1 cells. In short, it runs like this: as §1
Another assay has as its target BTK (Homo sapiens, UniProt Q06187). The assay can be described thus: Degradation of BTK protein in Namalwa cells (Western blot; DC50, Dmax). The following applies: for DC50: read-out: DC50 (BTK degradation), concentration giving 50% reduction of BTK expression level, cell line not given; for Dmax: read-out: Dmax (BTK degradation). On the technique in general: Immunoblotting shows a protein as a band on a membrane.

One may read the DC50 as the midpoint of the concentration-degradation curve. The Dmax is the greatest extent of degradation seen.

Sequence of BTK (Q06187 whole entry): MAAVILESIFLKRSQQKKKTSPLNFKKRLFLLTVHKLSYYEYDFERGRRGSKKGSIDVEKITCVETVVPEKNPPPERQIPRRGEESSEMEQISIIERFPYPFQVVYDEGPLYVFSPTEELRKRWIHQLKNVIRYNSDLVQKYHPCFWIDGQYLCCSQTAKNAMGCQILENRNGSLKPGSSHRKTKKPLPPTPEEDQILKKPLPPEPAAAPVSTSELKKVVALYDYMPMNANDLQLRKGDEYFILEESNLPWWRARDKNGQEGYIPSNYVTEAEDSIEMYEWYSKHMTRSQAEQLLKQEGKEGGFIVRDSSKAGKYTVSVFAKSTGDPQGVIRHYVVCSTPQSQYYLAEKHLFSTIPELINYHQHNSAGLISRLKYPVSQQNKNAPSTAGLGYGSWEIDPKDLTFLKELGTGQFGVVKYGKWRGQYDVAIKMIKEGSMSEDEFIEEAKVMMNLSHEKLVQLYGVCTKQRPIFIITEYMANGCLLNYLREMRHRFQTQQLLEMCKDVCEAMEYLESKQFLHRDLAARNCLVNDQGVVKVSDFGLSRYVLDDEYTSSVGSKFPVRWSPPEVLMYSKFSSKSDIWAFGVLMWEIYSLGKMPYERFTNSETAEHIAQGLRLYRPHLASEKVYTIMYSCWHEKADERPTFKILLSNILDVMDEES

With `Nc1ncnc2c1c(-c1ccc(Oc3ccccc3)cc1)nn2C1CCN(C(=O)N2CC(N3CCN(c4ccc5c(c4)C(=O)N([C@@H]4CCC(=O)NC4=O)C5=O)CC3)C2)CC1` [Compound 485, (R)-5-(4-(1-(4-(4-amino-3-(4-phenoxyphenyl)-1H-pyrazolo[3,4-d]pyrimidin-1-yl)piperidine-1-carbonyl)azetidin-3-yl)piperazin-1-yl)-2-(2,6-dioxopiperidin-3-yl)isoindoline-1,3-dione], the IC50 in the assay with Mino cells was < 1000 nM. The IC50 in the assay on JeKo-1 cells is < 1000 nM. Besides, at BTK, the DC50 is < 10 nM and the Dmax is > 90%.

Regarding `Nc1ncnc2c1c(-c1ccc(Oc3ccccc3)cc1)nn2C1CCN(C(=O)N2CC(N3CCN(c4ccc5c(c4)CN([C@@H]4CCC(=O)NC4=O)C5=O)CC3)C2)CC1` [Compound 486, (R)-3-(5-(4-(1-(4-(4-amino-3-(4-phenoxyphenyl)-1H-pyrazolo[3,4-d]pyrimidin-1-yl)piperidine-1-carbonyl)azetidin-3-yl)piperazin-1-yl)-1-oxoisoindolin-2-yl)piperidine-2,6-dione], the IC50 in the assay on Mino cells is < 1000 nM. For the same compound, the IC50 in the assay with JeKo-1 cells is < 1000 nM. For the same compound, on BTK, the DC50 was < 10 nM and the Dmax is > 90%.

Turning to `Nc1ncnc2c1c(-c1ccc(Oc3ccccc3)cc1)nn2[C@@H]1CCCN(C(=O)N2CC(N3CCN(c4ccc5c(c4)C(=O)N(C4CCC(=O)NC4=O)C5=O)CC3)C2)C1` (stereo partly drawn) [Compound 487, 5-(4-(1-((R)-3-(4-amino-3-(4-phenoxyphenyl)-1H-pyrazolo[3,4-d]pyrimidin-1-yl)piperidine-1-carbonyl)azetidin-3-yl)piperazin-1-yl)-2-(2,6-dioxopiperidin-3-yl)isoindoline-1,3-dione], the IC50 with Mino cells was < 1000 nM. Moreover, the IC50 with JeKo-1 cells was < 1000 nM. For the same compound, on BTK, the DC50 is < 10 nM and the Dmax was > 90%.

Regarding `Nc1ncnc2c1c(-c1ccc(Oc3ccccc3)cc1)nn2[C@@H]1CCCN(C(=O)N2CC(N3CCN(c4ccc5c(c4)CN(C4CCC(=O)NC4=O)C5=O)CC3)C2)C1` (stereo partly drawn) [Compound 488, 3-(5-(4-(1-((R)-3-(4-amino-3-(4-phenoxyphenyl)-1H-pyrazolo[3,4-d]pyrimidin-1-yl)piperidine-1-carbonyl)azetidin-3-yl)piperazin-1-yl)-1-oxoisoindolin-2-yl)piperidine-2,6-dione], the IC50 in the assay on Mino cells was < 1000 nM. In the assay with JeKo-1 cells, the IC50 was < 1000 nM. In addition, at BTK, the DC50 was < 10 nM and the Dmax is > 90%.

As to `Nc1ncnc2c1c(-c1ccc(Oc3ccccc3)cc1)nn2[C@@H]1CCCN(C(=O)N2CC(N3CCN(c4ccc5c(c4)C(=O)N([C@H]4CCC(=O)NC4=O)C5=O)CC3)C2)C1` [Compound 489, 5-(4-(1-((R)-3-(4-amino-3-(4-phenoxyphenyl)-1H-pyrazolo[3,4-d]pyrimidin-1-yl)piperidine-1-carbonyl)azetidin-3-yl)piperazin-1-yl)-2-((S)-2,6-dioxopiperidin-3-yl)isoindoline-1,3-dione], in the assay with Mino cells, the IC50 is < 1000 nM. The IC50 in the assay on JeKo-1 cells is < 1000 nM. Besides, on BTK, the DC50 was < 10 nM and the Dmax is > 90%.

In the case of `Nc1ncnc2c1c(-c1ccc(Oc3ccccc3)cc1)nn2[C@@H]1CCCN(C(=O)N2CC(N3CCN(c4ccc5c(c4)C(=O)N([C@@H]4CCC(=O)NC4=O)C5=O)CC3)C2)C1` [Compound 491, 5-(4-(1-((R)-3-(4-amino-3-(4-phenoxyphenyl)-1H-pyrazolo[3,4-d]pyrimidin-1-yl)piperidine-1-carbonyl)azetidin-3-yl)piperazin-1-yl)-2-((R)-2,6-dioxopiperidin-3-yl)isoindoline-1,3-dione], in the assay with Mino cells, the IC50 is < 1000 nM. The IC50 with JeKo-1 cells is < 1000 nM. For the same compound, at BTK, the DC50 lay within 10 to 50 nM and the maximal degradation (Dmax) is > 90%.

In the case of `Nc1ncnc2c1c(-c1ccc(Oc3ccccc3)cc1)nn2[C@@H]1CCCN(C(=O)N2CC(N3CCN(c4ccc5c(c4)CN([C@@H]4CCC(=O)NC4=O)C5=O)CC3)C2)C1` [Compound 492, (R)-3-(5-(4-(1-((R)-3-(4-amino-3-(4-phenoxyphenyl)-1H-pyrazolo[3,4-d]pyrimidin-1-yl)piperidine-1-carbonyl)azetidin-3-yl)piperazin-1-yl)-1-oxoisoindolin-2-yl)piperidine-2,6-dione], the IC50 in the assay with Mino cells was < 1000 nM. In the assay with JeKo-1 cells, the IC50 was < 1000 nM. Besides, on BTK, the DC50 is < 10 nM and the Dmax was > 90%.

Take `NC1=NC=NC2C1C(c1ccc(Oc3ccccc3)cc1)=NN2C1CCN(C(=O)N2CC(C3CN(c4ccc5c(c4)C(=O)N(C4CCC(=O)NC4=O)C5=O)C3)C2)CC1` (stereo not shown) [Compound 493, 5-(1′-(4-(4-amino-3-(4-phenoxyphenyl)-3a,7a-dihydro-1H-pyrazolo[3,4-d]pyrimidin-1-yl)piperidine-1-carbonyl)-[3,3′-biazetidin]-1-yl)-2-(2,6-dioxopiperidin-3-yl)isoindoline-1,3-dione]: the IC50 in the assay with Mino cells was < 1000 nM. Besides, in the assay on JeKo-1 cells, the IC50 was < 1000 nM. For the same compound, on BTK, the DC50 lay within 10 to 50 nM and the Dmax was > 90%.

On to `NC1=NC=NC2C1C(c1ccc(Oc3ccccc3)cc1)=NN2C1CCN(C(=O)N2CC(C3CN(c4ccc5c(c4)CN(C4CCC(=O)NC4=O)C5=O)C3)C2)CC1` (stereo not shown) [Compound 494, 3-(5-(1′-(4-(4-amino-3-(4-phenoxyphenyl)-3a,7a-dihydro-1H-pyrazolo[3,4-d]pyrimidin-1-yl)piperidine-1-carbonyl)-[3,3′-biazetidin]-1-yl)-1-oxoisoindolin-2-yl)piperidine-2,6-dione], for which, in the assay on Mino cells, the IC50 was < 1000 nM. The IC50 in the assay with JeKo-1 cells was < 1000 nM. Further, on BTK, the DC50 was < 10 nM and the Dmax is > 90%.

`NC1=NC=NC2C1C(c1ccc(Oc3ccccc3)cc1)=NN2C1CCN(C(=O)N2CC(C3CN(c4ccc5c(c4)CN([C@H]4CCC(=O)NC4=O)C5=O)C3)C2)CC1` (stereo partly drawn) [Compound 495, (3S)-3-(5-(1′-(4-(4-amino-3-(4-phenoxyphenyl)-3a,7a-dihydro-1H-pyrazolo[3,4-d]pyrimidin-1-yl)piperidine-1-carbonyl)-[3,3′-biazetidin]-1-yl)-1-oxoisoindolin-2-yl)piperidine-2,6-dione]: the IC50 in the assay on Mino cells and with JeKo-1 cells was < 1000 nM each time. The DC50 on BTK was < 10 nM. For the same compound, the Dmax on BTK was > 90%.

On to `NC1=NC=NC2C1C(c1ccc(Oc3ccccc3)cc1)=NN2C1CCN(C(=O)N2CC(C3CN(c4ccc5c(c4)CN([C@@H]4CCC(=O)NC4=O)C5=O)C3)C2)CC1` (stereo partly drawn) [Compound 496, (3R)-3-(5-(1′-(4-(4-amino-3-(4-phenoxyphenyl)-3a,7a-dihydro-1H-pyrazolo[3,4-d]pyrimidin-1-yl)piperidine-1-carbonyl)-[3,3′-biazetidin]-1-yl)-1-oxoisoindolin-2-yl)piperidine-2,6-dione], for which the IC50 in the assay with Mino cells is < 1000 nM. For the same compound, the IC50 in the assay on JeKo-1 cells was < 1000 nM. Besides, at BTK, the DC50 was < 10 nM and the Dmax was > 90%.

For `NC1=NC=NC2C1C(c1ccc(Oc3ccccc3)cc1)=NN2[C@@H]1CCCN(C(=O)N2CC(C3CN(c4ccc5c(c4)C(=O)N(C4CCC(=O)NC4=O)C5=O)C3)C2)C1` (stereo partly drawn) [Compound 497, 5-(1′-((3R)-3-(4-amino-3-(4-phenoxyphenyl)-3a,7a-dihydro-1H-pyrazolo[3,4-d]pyrimidin-1-yl)piperidine-1-carbonyl)-[3,3′-biazetidin]-1-yl)-2-(2,6-dioxopiperidin-3-yl)isoindoline-1,3-dione], the IC50 with Mino cells and in the assay with JeKo-1 cells was < 1000 nM in each case. The DC50 on BTK was 10 to 50 nM. Further, the Dmax on BTK is > 90%.

Regarding `NC1=NC=NC2C1C(c1ccc(Oc3ccccc3)cc1)=NN2[C@@H]1CCCN(C(=O)N2CC(C3CN(c4ccc5c(c4)CN(C4CCC(=O)NC4=O)C5=O)C3)C2)C1` (stereo partly drawn) [Compound 498, 3-(5-(1′-((3R)-3-(4-amino-3-(4-phenoxyphenyl)-3a,7a-dihydro-1H-pyrazolo[3,4-d]pyrimidin-1-yl)piperidin-1-carbonyl)-[3,3′-biazetidin]-1-yl)-1-oxoisoindolin-2-yl)piperidine-2,6-dione], the IC50 in the assay on Mino cells was < 1000 nM. Further, the IC50 in the assay with JeKo-1 cells is < 1000 nM. In addition, on BTK, the DC50 was < 10 nM and the Dmax is > 90%.

As for `NC1=NC=NC2C1C(c1ccc(Oc3ccccc3)cc1)=NN2C1CCN(C2CN(C(=O)N3CC(C4CN(c5ccc6c(c5)C(=O)N(C5CCC(=O)NC5=O)C6=O)C4)C3)C2)CC1` (stereo not shown) [Compound 499, 5-(1′-(3-(4-(4-amino-3-(4-phenoxyphenyl)-3a,7a-dihydro-1H-pyrazolo[3,4-d]pyrimidin-1-yl)piperidin-1-yl)azetidine-1-carbonyl)-[3,3′-biazetidin]-1-yl)-2-(2,6-dioxopiperidin-3-yl)isoindoline-1,3-dione], the IC50 in the assay on Mino cells is < 1000 nM. Also, the IC50 in the assay with JeKo-1 cells lay within 1000 to 10000 nM. In addition, at BTK, the DC50 lay in the range of 10 to 50 nM and the Dmax is > 75%.

Take `NC1=NC=NC2C1C(c1ccc(Oc3ccccc3)cc1)=NN2C1CCN(C2CN(C(=O)N3CC(C4CN(c5ccc6c(c5)CN(C5CCC(=O)NC5=O)C6=O)C4)C3)C2)CC1` (stereo not shown) [Compound 500, 3-(5-(1′-(3-(4-(4-amino-3-(4-phenoxyphenyl)-3a,7a-dihydro-1H-pyrazolo[3,4-d]pyrimidin-1-yl)piperidin-1-yl)azetidine-1-carbonyl)-[3,3′-biazetidin]-1-yl)-1-oxoisoindolin-2-yl)piperidine-2,6-dione]: in the assay with Mino cells, the IC50 is < 1000 nM. The IC50 in the assay on JeKo-1 cells lay within 1000 to 10000 nM. Also, at BTK, the DC50 was 10 to 50 nM and the Dmax was > 90%.

In the case of `NC1=NC=NC2C1C(c1ccc(Oc3ccccc3)cc1)=NN2C1CCCN(C2CN(C(=O)N3CC(C4CN(c5ccc6c(c5)C(=O)N(C5CCC(=O)NC5=O)C6=O)C4)C3)C2)C1` (stereo not shown) [Compound 501], the IC50 in the assay on Mino cells fell in the range of 1000 to 10000 nM. Moreover, the IC50 with JeKo-1 cells is < 1000 nM. Besides, at BTK, the DC50 was in the range of 10 to 50 nM and the greatest degradation seen (Dmax) is > 90%.
